According to patent publication US8772297B2, “TGF-β signal transduction inhibitor” (Kyoto University, priority 2010, dated 2014):

How the values were obtained:
[1] = system: TGF-β signal transduction (Smad3/Smad4 complex activation) in x9CAGA/CCL64 cells; test: Evaluation of TGF-β signal transduction inhibitory activity (CAGA-luciferase reporter, x9CAGA/CCL64 cells stimulated with human TGF-β1); type: cell-based, mink; details: 0.5 ng/ml human TGF-β1; for inhibition at 50 µM: 50 μM test compound
Method: The biological activity of a compound was determined by measuring the activation of Smad3/Smad4 complex which is a transcription factor showing activation induced by TGF-β stimulation. That is, a reporter plasmid having a DNA sequence (CAGA sequence), which is activated by binding to Smad3/Smad4 complex, is linked to the upstream of the luciferase gene (luminescence enzyme) was prepared. Mink lung epithelial cells CCL64 (named as x9CAGA/CCL64 cells) stably incorporating this reporter plasmid were established. The x9CAGA/CCL64 cells were cultured in DMEM medium containing 10% FBS, penicillin (100 U/ml), streptomycin ([…]), and blasticidin S (1 μg/ml). The x9CAGA/CCL64 cells were seeded in a 96 well plate at a concentration of 1.0×10^4 cells/well, and cultured in a 5% CO2 incubator at 37° C. The next day, the medium was changed to DMEM medium containing 0.2% FBS, and the test compound was added. […] After culture for 16 hr, the cells were washed with PBS, and lysed with 30 μl of cell lysis solution. […] The luminescence level of each well was measured using a Packard EnVision plate reader. The TGF-β signal transduction inhibitory activity of each compound in the x9CAGA/CCL64 cells was calculated from the ratio of the measurement values of the test compound-free well and the well with addition.

[2] = system: mouse bile duct ligation induced hepatic fibrosis model; test: Anti-fibrillization action in mouse bile duct ligation induced hepatic fibrosis model (BDL model); type: in vivo; details: ICR mice, tail vein once a day for 14 days, qPCR vs GAPDH, FIG. 4
Method: Hepatopathy caused by accumulation of bile in the liver and therewith associated liver fibrillization are induced by ligating the bile duct of mouse. The effect of the test compound on the hepatopathy and liver fibrillization associated therewith was evaluated. […]
mRNA was extracted from the hepatic tissue preserved in RNALater by using an RNA purification kit RNeasy Micro Kit (manufactured by QIAGEN), and the RNA concentration was determined using a spectrophotometer (Nano Drop). […] Using SYBR® Premix EX Taq™ (manufactured by TAKARA), a reaction mixture was prepared according to the package insert, qPCR reaction was performed using respective primers for αSMA and the internal standard GAPDH (manufactured by Invitrogen), and the mRNA expression level was quantified.

Compound: 4-{[3-(4-oxanylmethoxyphenylsulfamoyl)benzenesulfonylamino]methyl}-piperidine-1-carboxylic acid tert-butyl ester [Y198]
- inhibitory activity (%) ([1]; 20 μM test compound): (>30.0%)

Compound: CC(C)(C)OC(=O)N1CCC(CNS(=O)(=O)c2cccc(S(=O)(=O)N3CCCCC3)c2)CC1 [Y029, 4-{[3-(piperidine-1-sulfonyl)benzenesulfonylamino]methyl}piperidine-1-carboxylic acid tert-butyl ester]
- inhibition at 50 µM [1]: 88%

Compound: CC(C)(C)OC(=O)N1CCN(S(=O)(=O)c2cccc(S(=O)(=O)N3CCCCC3)c2)CC1 [Y043, 4-[3-(piperidine-1-sulfonyl)benzenesulfonyl]piperazine-1-carboxylic acid tert-butyl ester]
- inhibition at 50 µM [1]: 67%

Compound: O=C(OCc1ccccc1)N1CCC(CNS(=O)(=O)c2cccc(S(=O)(=O)N3CCCCC3)c2)CC1 [Y053, 4-{[3-(piperidine-1-sulfonyl)benzenesulfonylamino]-methyl}-piperidine-1-carboxylic acid benzyl ester]
- inhibition at 50 µM [1]: 67%

Compound: CCN(CC)S(=O)(=O)c1cccc(S(=O)(=O)NCC2CCN(C(=O)OC(C)(C)C)CC2)c1 [Y080, 4-[(3-diethylsulfamoylbenzenesulfonylamino)methyl]piperidine-1-carboxylic acid tert-butyl ester]
- inhibition at 50 µM [1]: 66%

Compound: CC(C)(C)OC(=O)N1CCC(CNS(=O)(=O)c2cccc(S(=O)(=O)N3CCOCC3)c2)CC1 [Y081, 4-{[3-(morpholine-4-sulfonyl)benzenesulfonylamino]methyl}piperidine-1-carboxylic acid tert-butyl ester]
- inhibition at 50 µM [1]: 45%

Compound: CC(C)(C)OC(=O)N1CCC(CNS(=O)(=O)c2cccc(S(N)(=O)=O)c2)CC1 [Y082, 4-[(3-sulfamoylbenzenesulfonylamino)methyl]piperidine-1-carboxylic acid tert-butyl ester]
- inhibition at 50 µM [1]: 29%

Compound: CC(C)(C)OC(=O)N1CCC(CNS(=O)(=O)c2ccccc2)CC1 [Y083, 4-(benzenesulfonylaminomethyl)piperidine-1-carboxylic acid tert-butyl ester]
- inhibition at 50 µM [1]: 24%

Compound: CC(C)(C)OC(=O)N1CCC(CNS(=O)(=O)c2cccc(S(=O)(=O)NCC3CCCCC3)c2)CC1 [Y101, 4-{[3-(cyclohexylmethylsulfamoyl)benzenesulfonylamino]methyl}-piperidine-1-carboxylic acid tert-butyl ester]
- inhibition at 50 µM [1]: 74%

Compound: Cc1ccc(N(C)S(=O)(=O)c2cccc(S(=O)(=O)N(C)CC3CCN(C(=O)OC(C)(C)C)CC3)c2)cc1 [Y191, 4-({methyl-[3-(methyl-p-tolylsulfamoyl)benzenesulfonyl]amino}methyl)piperidine-1-carboxylic acid tert-butyl ester]
- inhibition at 20 µM ([1]; 20 μM test compound): 54%

Compound: CC(=O)c1ccc(NS(=O)(=O)c2cccc(S(=O)(=O)NCC3CCN(C(=O)OC(C)(C)C)CC3)c2)cc1 [Y192, 4-{[3-(4-acetylphenylsulfamoyl)benzenesulfonylamino]methyl}piperidine-1-carboxylic acid tert-butyl ester]
- inhibition at 20 µM ([1]; 20 μM test compound): > 18.4%

Compound: CC(O)c1ccc(NS(=O)(=O)c2cccc(S(=O)(=O)NCC3CCN(C(=O)OC(C)(C)C)CC3)c2)cc1 (centres unmarked) [Y195, 4-({3-[4-(1-hydroxyethyl)phenylsulfamoyl]benzenesulfonylamino}methyl)-piperidine-1-carboxylic acid tert-butyl ester]
- inhibition at 20 µM ([1]; 20 μM test compound): > 12.2%

Compound: CN(CC1CCN(C(=O)OC(C)(C)C)CC1)S(=O)(=O)c1cccc(S(=O)(=O)N(C)c2ccc(C(C)(C)C)cc2)c1 [Y205, 4-[({3-[(4-tert-butylphenyl)methylsulfamoyl]benzenesulfonyl}methylamino)-methyl]piperidine-1-carboxylic acid tert-butyl ester]
- inhibition at 20 µM ([1]; 20 μM test compound): 60%

Compound: Cc1c(C)c(S(=O)(=O)NCC2CCN(C(=O)OC(C)(C)C)CC2)c(C)c(S(=O)(=O)Nc2ccc(C(C)(C)C)cc2)c1C [Y335, 4-{[3-(4-tert-butylphenylsulfamoyl)-2,4,5,6-tetramethylbenzenesulfonylamino]methyl}piperidine-1-carboxylic acid tert-butyl ester]
- IC50 [1]: 0.8 µM

Compound: CN(C)c1ccc(NS(=O)(=O)c2cccc(S(=O)(=O)NCC3CCNCC3)c2)cc1-c1ccco1 [Y516, 4-{[3-(4-dimethylamino-3-furan-2-yl-phenylsulfamoyl)benzenesulfonylamino]methyl}piperidine]
- mRNA expression level of α smooth muscle actin in the liver tissue [2]: significantly suppressed
- IC50 [1]: 66 µM

Compound: CCCC(=O)N1CCC(CNS(=O)(=O)c2cccc(S(=O)(=O)Nc3ccc(N(C)C)c(-c4ccco4)c3)c2)CC1 [Y639, 4-{[3-(4-dimethylamino-3-furan-2-yl-phenylsulfamoyl)benzenesulfonylamino]methyl}-1-butyryl-piperidine]
- IC50 [1]: 3.9 µM
